The results in this text go back to ChEMBL document CHEMBL5584341, “Discovery of Potent, Specific, and Orally Available NLRP3 Inflammasome Inhibitors Based on Pyridazine Scaffolds for the Treatment of Septic Shock and Peritonitis” (J Med Chem, 2024).

The subject of one data set is Mus musculus. Briefly: Inhibition of MSU crystal induced peritonitis in BALB/c mouse assessed as reduction in serum IL-1beta level at 50 to 100 mg/kg, ip pretreated with LPS for 3 hrs followed by compound addition prior to MSU stimulation for 6 hrs by ELISA. Type of data set: functional, organism-based. As to conditions: dose 50-100 mg/kg. Background: An ELISA detects its analyte on a solid surface through an enzyme-linked reagent.

Data set [1] can be described thus: Inhibition of IL-1beta release in PMA-differentiated/ LPS and nigericin stimulated human THP-1 cells at 0.1 uM pretreated with LPS for 3 hrs followed by incubation with compound for 40 mins and later stimulated with nigericin for 40 mins by ELISA. In kind it is functional. The following applies: THP-1, 1.333 h, time 80 min.
The target of data set [2] is NACHT, LRR and PYD domains-containing protein 3 (Mus musculus) (UniProt Q8R4B8). Briefly: Inhibition of NLRP3 inflammasome activation in mouse BMDMs assessed as effect on TNF-alpha production at 2 to 31.25 nM pretreated with compound for 40 mins followed by LPS/ nigericin stimulation. In kind it is cell-based. The following applies: BMDM, dose 2-31.25 nM.
Sequence of NACHT, LRR and PYD domains-containing protein 3 (Mus musculus) (Q8R4B8 whole entry, the tested form may be a part): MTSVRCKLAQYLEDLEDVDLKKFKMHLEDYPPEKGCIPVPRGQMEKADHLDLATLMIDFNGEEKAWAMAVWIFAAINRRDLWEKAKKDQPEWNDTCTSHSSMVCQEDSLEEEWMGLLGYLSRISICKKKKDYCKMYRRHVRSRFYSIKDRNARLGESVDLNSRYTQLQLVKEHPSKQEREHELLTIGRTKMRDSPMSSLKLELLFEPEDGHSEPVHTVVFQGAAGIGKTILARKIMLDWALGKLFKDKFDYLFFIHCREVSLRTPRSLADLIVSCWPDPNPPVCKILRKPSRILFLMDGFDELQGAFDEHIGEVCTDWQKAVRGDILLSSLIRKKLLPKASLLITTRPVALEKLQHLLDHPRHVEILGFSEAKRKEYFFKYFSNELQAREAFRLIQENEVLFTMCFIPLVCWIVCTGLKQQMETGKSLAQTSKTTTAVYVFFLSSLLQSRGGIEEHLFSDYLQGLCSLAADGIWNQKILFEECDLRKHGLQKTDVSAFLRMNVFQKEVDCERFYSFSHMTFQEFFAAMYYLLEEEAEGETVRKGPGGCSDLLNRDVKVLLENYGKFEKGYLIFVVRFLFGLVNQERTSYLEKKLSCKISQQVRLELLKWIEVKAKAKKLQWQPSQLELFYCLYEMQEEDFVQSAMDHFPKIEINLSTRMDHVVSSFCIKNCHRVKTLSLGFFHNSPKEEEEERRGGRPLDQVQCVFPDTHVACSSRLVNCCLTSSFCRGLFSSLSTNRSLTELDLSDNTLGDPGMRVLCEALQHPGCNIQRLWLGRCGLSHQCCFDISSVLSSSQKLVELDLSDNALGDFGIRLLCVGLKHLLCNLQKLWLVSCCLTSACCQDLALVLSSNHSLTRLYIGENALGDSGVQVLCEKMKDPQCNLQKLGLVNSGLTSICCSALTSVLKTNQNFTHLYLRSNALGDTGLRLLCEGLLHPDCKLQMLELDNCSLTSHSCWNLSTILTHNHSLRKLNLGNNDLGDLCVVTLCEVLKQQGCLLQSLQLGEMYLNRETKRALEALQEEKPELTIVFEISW
Data set [3] can be described thus: Cmax in BALB/c mouse at 5 mg/kg, po measured upto 24 hrs by LC-MS/MS analysis. In kind it is ADME, organism-based. As to conditions: in vivo.
In data set [4] the target is NACHT, LRR and PYD domains-containing protein 3 (Mus musculus) (UniProt Q8R4B8). Kind of data set: Inhibition of NLRP3 inflammasome activation in LPS/nigericin stimulated mouse BMDMs assessed as effect on pro-IL-1beta expression pretreated with LPS for 3 hrs followed by compound addition for 40 mins prior to nigericin stimulation for 40 mins by Western blotting analysis. Type of data set: cell-based. The following applies: BMDM, time 80.0 min. (In general: Immunoblotting shows a protein as a band on a membrane.)

Another data set concerns THP-1. Kind of data set: Inhibition of nigericin induced ASC oligomerization in PMA differentiated human THP-1 cells at 5 to 80 nM pretreated with LPS for 3 hrs followed by compound addition for 40 mins prior to nigericin stimulation for 40 mins by gel electrophoresis analysis. The following applies: dose 5-80 nM, time 80.0 min. In kind it is functional, cell-based.
Data set [5] in a line: Inhibition of IL-1beta release in PMA-differentiated/ LPS and nigericin stimulated human THP-1 cells at 0.5 uM pretreated with LPS for 3 hrs followed by incubation with compound for 40 mins and later stimulated with nigericin for 40 mins by ELISA. As to conditions: THP-1, 1.333 h, time 80 min. Type of data set: functional.
Data set [6] is described as follows: Cmax in BALB/c mouse at 5 mg/kg, iv measured upto 24 hrs by LC-MS/MS analysis. The following applies: in vivo. Type of data set: ADME, organism-based.

Active and inactive are the calls of the source. The calls are words filed in the database; no cut-off is given here.

`OCCN1CCC[C@@H](Nc2nnc(-c3ccc4occc4c3O)c3c2C2CCC3CC2)C1`: the inhibition result with Mus musculus and in the data set on THP-1 was “Active” each time. In addition, the inhibition at 0.1 µM in data set [1] amounted to 98.9%. For the same compound, the inhibition entry in data set [2] and in data set [4] was “inactive” throughout. Moreover, the values for the Cmax in data set [3] and in data set [6] were 746 ng/mL and 3770 ng/mL, respectively. Besides, the inhibition at 0.5 µM in data set [5] was found to be 98.9%.

As usually defined, the inhibition is the change of the read-out against control, counted positive when it falls. As a reminder, the Cmax is the maximum level reached in the sampled fluid or tissue.
